Measured values from PMC6539525, “Design, Synthesis, and Mechanism of Dihydroartemisinin–Coumarin Hybrids as Potential Anti-Neuroinflammatory Agents” (Molecules, 2019).
Where two headings read alike, the source gives them in different places.

What was measured:
A549 cells = experiment: MTT cytotoxicity in A549 cells; format: cell-based; details: Homo sapiens
Procedure: (§1) As the anti-neuroinflammatory agents for cancer patients, all newly synthesized compounds were evaluated in vitro for antitumor activity against human breast cancer cell line MDA-MB-231, colorectal cancer cells HT-29 and HCT-116, and lung cancer cell line A549 by using the standard MTT method, respectively. Doxorubicin (DOX) and DHA were used as the reference standard. Additionally, owing to the rapid proliferation, the tumor cells actually was always in hypoxia condition. Therefore, the in vitro cytotoxicity was evaluated in two different conditions (hypoxia and normoxia).
(§2) After recovery, the cells were cultured in 96-well plates for 24 h at 37 °C in a humidified atmosphere with 95% air and 5% CO2. After treated with different tested compounds, the hypoxia groups were placed in a sealed hypoxia incubator chamber (Stemcell Technologies, Inc., Vancouver, BC, Canada) filled with 5% CO2 and 95% N2 for 24 h, and then transferred to the incubator chamber filled with air for 72 h. On the contrary, the normoxia groups were cultured under air condition for 96h.
(§3) Cancer cells HT-29 (Human Colorectal Adenocarcinoma cell line), MDA-MB-231 (Human Breast Cancer cell line), HCT-116 (Human Colorectal Carcinoma cell line), and A549 (Human Lung Adenocarcinomic cell line) were from ATCC.
(§4) When the adherent cells reached 80% confluence, the culture medium was discarded. The cells were digested by trypsin and collected after centrifugation. The fresh culture medium was gently blown into it to form single-cell suspension. Cell suspension will be diluted to 1.5–3 × 10^4 cells/mL. Each hole of 96-well plates was added 100 μL cell suspension and incubated for 24 h (5% CO2; 37 °C). Then the holes were added different concentrations of tested compounds. The early screening concentration is set to 100 μM, 50 μM, 25 μM, 12.5 μM, and 6.25 μM. Three replicates were made for each concentration of the tested compounds. After the cells were grown for 96h, 20 μL MTT (5 mg/mL) was added to each well and incubated for 4 h. The medium was discarded and each well was added 100 μL DMSO to dissolve the formazan blue. Absorbance was measured at 570 nm with a microplate reader (Synergy-HT, BioTek Instruments, Winooski, VT, USA).
(§5) Hypoxia condition: The cells were treated with different concentration of tested compounds, placed in hypoxia chamber (Catalog Number 27310, Stemcell Technologies, Inc., Vancouver, BC, Canada), and incubated for 24 h ([…]; 37 °C). Then the cells were placed in normoxia condition (5% CO2; 37 °C) and incubated for 72 h.

[1] = test system: IL-6 release of LPS-induced N9 cells; experiment: IL-6 release of LPS-induced N9 cells (cytokine kit); format: cell-based, murine; details: compound 1 μM, LPS 1 μg/mL, 48 h; for inhibition at 1 µM: Mus musculus
Procedure: (§6) N9 cells, which were in the logarithmic phase, were incubated for 24 h by adherent culture. Subsequently, the medium was changed to new one without serum. The cells were treated with different concentration of tested compounds. After specific time in the LPS condition, the supernatants were collected and analyzed.
(§7) The secreted level of TNF-α and IL-6 was measured using mouse Th1/Th2/Th17 Cytokine Kit, purchased from BD Pharningen. The data was analyzed by FCAP Array v3.0. IL-2, IL-4, IL-10, IL-17A, and IFN-γ were not detected in the experiment.

MDA-MB-231 cells = experiment: MTT cytotoxicity in MDA-MB-231 cells; format: cell-based; details: Homo sapiens
Procedure: as §1, §2, §3, §4, §5

HT-29 cells = experiment: MTT cytotoxicity in HT-29 cells; format: cell-based, Human; details: Homo sapiens, MTT
Procedure: as §1
as §2, with “On the contrary, the normoxia groups were cultured under air condition for 96h.” left out
as §3
as §4, with “After the cells were grown for 96h, 20 μL MTT (5 mg/mL) was added to each well and incubated for 4 h.” left out, “USA). […]” for “USA).”

[2] = test system: TNF-α release of LPS-induced N9 cells; experiment: TNF-α release of LPS-induced N9 cells (cytokine kit); format: cell-based, murine; details: compound 1 μM, LPS 1 μg/mL, 48 h; for inhibition at 1 µM: Mus musculus
Procedure: as §6, §7

HCT-116 cells = experiment: MTT cytotoxicity in HCT-116 cells; format: cell-based; details: Homo sapiens
Procedure: as §1, §2, §3, §4, §5

[3] = test system: NO release of LPS-induced microglial N9 cells; experiment: Inhibition of NO release in LPS-induced N9 cells (Griess); format: cell-based, murine; details: Mus musculus, 1 μg/mL LPS for 48 h, NO level in medium
Procedure: (§8) The anti-neuroinflammatory activity of DCH was evaluated and then the representative compounds were selected for the further study. […] In addition, in order to exclude the death influence, MTT-IC20 of all the compounds were measured. […] The exact reason was still unclear, but we supposed that it might be related to the homeostasis of cells. The tumor cells actually were always in hypoxia condition, in which DCH could promote the cytotoxic activity against tumor cells. In brief, DCH could reduce the release of NO caused by LPS-induced microglial cells.
as §6
The nitrite levels in medium were determined by Griess reaction. The absorbance was measured at 540 nm using a microplate reader.

[4] = MTT cytotoxicity in N9 cells; format: cell-based, murine; details: mouse, N9 microglial cells, cytotoxic activity
Procedure: as §8, §4, §6

[5] = NO capture analysis with sodium nitroprusside (Griess); details: 0.01-10 μM compound, 0.5 mM SNP solution, 1 h, room temperature
Procedure: Sodium nitroprusside (SNP) is a NO donor. In this experiment, the reason of the DCH reducing NO level was preliminary explored. […] That means the main reason of the NO level reduction is due to species-specific effect.
SNP was dissolved in PBS to prepare the 100 mM stock solution. In this experiment, SNP solution of […] was added to 975 μL PBS solution which included different concentration of tested compounds. After 60 min under r.t. condition, the concentration of NO2^− was tested using Griess assay.
6l (0.01 μM, 0.1 μM, 1 μM, and 10 μM) or 5n (0.01 μM, 0.1 μM, 1 μM, and 10 μM) was added to a concentration of 0.5 mM SNP solution. […] Data were shown as mean ± SD. *** p < 0.001 compared with control group.

[6] = A549, hypoxia 24 h then normoxia 72 h, read-out: IC50 A549 Hypoxia
[7] = A549, normoxia 96 h, read-out: IC50 A549 Normoxia
[8] = MDA-MB-231, hypoxia 24 h then normoxia 72 h, read-out: IC50 MDA-MB-231 Hypoxia
[9] = MDA-MB-231, normoxia 96 h, read-out: IC50 MDA-MB-231 Normoxia
[10] = HT-29, hypoxia 24 h then normoxia 72 h, read-out: IC50 HT-29 Hypoxia
[11] = HT-29, normoxia 96 h, read-out: IC50 HT-29 Normoxia
[12] = HCT-116, hypoxia 24 h then normoxia 72 h, read-out: IC50 HCT-116 Hypoxia
[13] = HCT-116, normoxia 96 h, read-out: IC50 HCT-116 Normoxia

Row | Structure (SMILES) | melting point [°C] | IC50 [3] [nM] | IC50 (A549 cells; [6]) [µM] | IC50 (A549 cells; [7]) [µM] | inhibition at 1 µM [1] [%] | IL-6 [1] [pg/mL] | IC50 (MDA-MB-231 cells; [8]) [µM] | IC50 (MDA-MB-231 cells; [9]) [µM] | IC50 (HT-29 cells; [10]) [µM] | IC50 (HT-29 cells; [11]) [µM] | inhibition at 1 µM [2] [%] | TNF-α [2] [pg/mL] | IC50 (HCT-116 cells; [12]) [µM] | IC50 (HCT-116 cells; [13]) [µM] | IC20 [4] [µM] | NO radical scavenging activity [5]
1 | C[C@H]1[C@@H](OCCc2cn(Cc3cc4cc(Br)ccc4oc3=O)nn2)O[C@@H]2O[C@@]3(C)CC[C@H]4[C@H](C)CC[C@@H]1[C@@]24OO3 [2b, 6-bromo-3-((4-(2-((10S)-dihydroartemisininoxy)ethyl)-1H-1,2,3-triazol-1-yl)-methyl)-2H-1-chromen-2-one] | 138 to 140 | 640 | 60.2 | > 100 | 30.9 | 797.52 ± 140.74 | 36.9 | 37.7 | 12.1 | 9.75 | 27.2 | 3285.99 ± 1062.40 | > 100 | 56 | > 10 | 
2 | C[C@H]1[C@@H](OCc2cn(Cc3cc4cc(Br)ccc4oc3=O)nn2)O[C@@H]2O[C@@]3(C)CC[C@H]4[C@H](C)CC[C@@H]1[C@@]24OO3 [1b, 6-bromo-3-((4-((10S)-dihydroartemisininoxy)methyl-1H-1,2,3-triazol-1-yl)-methyl)-2H-1-chromen-2-one] | 78 to 80 | > 10000 | > 100 | > 100 |  |  | > 100 | > 100 | 13.1 | 21.4 |  |  | > 100 | > 100 | > 10 | 
3 | C[C@H]1[C@@H](OCCc2cn(Cc3cc4cc(Cl)ccc4oc3=O)nn2)O[C@@H]2O[C@@]3(C)CC[C@H]4[C@H](C)CC[C@@H]1[C@@]24OO3 [2c, 6-chloro-3-((4-(2-((10S)-dihydroartemisininoxy)ethyl)-1H-1,2,3-triazol-1-yl)-methyl)-2H-1-chromen-2-one] | 138 to 140 | 2660 | 66.9 | 87.2 | 26.4 | 850.24 ± 112.47 | 32.5 | 44 | 19.6 | 17.5 | 32.1 | 3077.03 ± 375.48 | 64.4 | 49.5 | > 10 | 

Now from value to molecule, other results behind:

Row | melting point [°C] | IC50 [3] [nM] | Structure (SMILES) | IC50 (A549 cells; [6]) [µM] | IC50 (A549 cells; [7]) [µM] | inhibition at 1 µM [1] [%] | IL-6 [1] [pg/mL] | IC50 (MDA-MB-231 cells; [8]) [µM] | IC50 (MDA-MB-231 cells; [9]) [µM] | IC50 (HT-29 cells; [10]) [µM] | IC50 (HT-29 cells; [11]) [µM] | inhibition at 1 µM [2] [%] | TNF-α [2] [pg/mL] | IC50 (HCT-116 cells; [12]) [µM] | IC50 (HCT-116 cells; [13]) [µM] | IC20 [4] [µM] | NO radical scavenging activity [5]
4 | 80 to 82 | 1420 | Cc1ccc2oc(=O)cc(OCc3cn(CCCO[C@H]4O[C@@H]5O[C@@]6(C)CC[C@H]7[C@H](C)CC[C@@H]([C@H]4C)[C@@]57OO6)nn3)c2c1 [6p] | 18.8 | 18.9 | 35.2 | 747.80 ± 125.56 | 10.3 | 22.1 | 12.5 | 7.49 | 23.4 | 3451.29 ± 646.50 | 38.1 | 35.3 | > 10 | 
5 | 86 to 88 | 520 | Cc1cc(C)c2c(OCc3cn(CCCO[C@H]4O[C@@H]5O[C@@]6(C)CC[C@H]7[C@H](C)CC[C@@H]([C@H]4C)[C@@]57OO6)nn3)cc(=O)oc2c1 [6l] | 9.78 | 6.88 |  |  | 6.85 | 1.17 | 3.4 | 8.41 |  |  | 27.9 | 26.9 | > 10 | had NO radical scavenging activity
6 | 90 to 92 | 5800 | Cc1cc(C)c2oc(=O)cc(OCc3cn(CCCO[C@H]4O[C@@H]5O[C@@]6(C)CC[C@H]7[C@H](C)CC[C@@H]([C@H]4C)[C@@]57OO6)nn3)c2c1 [6m] | 20.1 | 27.9 |  |  | 18.7 | 24.6 | 5.9 | 22.4 |  |  | 93.5 | 42.1 | > 10 | 
7 | 84 to 86 | 570 | Cc1cccc2c(OCc3cn(CCO[C@H]4O[C@@H]5O[C@@]6(C)CC[C@H]7[C@H](C)CC[C@@H]([C@H]4C)[C@@]57OO6)nn3)cc(=O)oc12 [5o] | 45.1 | 50.4 |  |  | 16.5 | 37.4 | 21.2 | 16.1 |  |  | 38.5 | 29.7 | > 10 | 
8 | 111 to 113 | 3360 | Cc1cc(C)c2c(OCc3cn(CCO[C@H]4O[C@@H]5O[C@@]6(C)CC[C@H]7[C@H](C)CC[C@@H]([C@H]4C)[C@@]57OO6)nn3)cc(=O)oc2c1 [5l] | > 100 | > 100 |  |  | > 100 | > 100 | 3.76 | 2.78 |  |  | > 100 | > 100 | 7.13 | 
9 | 111 to 113 | 1080 | Cc1cc(C)c2oc(=O)cc(OCc3cn(CCO[C@H]4O[C@@H]5O[C@@]6(C)CC[C@H]7[C@H](C)CC[C@@H]([C@H]4C)[C@@]57OO6)nn3)c2c1 [5m] | 1.28 | 2.67 |  |  | 13 | 14.2 | 5.89 | 12.9 |  |  | 44.8 | 62.8 | 1.04 | 
